According to patent publication US20250296937A1, “CYCLIC BISBENZYL TETRAHYDROISOQUINOLINE COMPOUND, AND PREPARATION METHOD THEREFOR AND USE THEREOF” (Shanghai Institute of Materia Medica, Chinesse Academy of …, priority 2021, published 2025):
“Also recorded” adds a separate entry of the source. Like-named read-outs stand apart in the source and are kept apart here.

Assays:
[1] = target: T1, hERG potassium channel (Homo sapiens, UniProt Q12809); experiment: hERG potassium channel whole-cell membrane clamp in CHO cells; type: cell-based; settings: for IC50: CHO cells stably expressing hERG, whole-cell membrane clamp
T1 construct: expressed in transfected cells
Description: Compounds were given for at least 1 min for each tested concentration, and at least 2 cells (n≥2) were tested per concentration.

[2] = system: ALM12 hepatocytes; experiment: Anti H2O2-induced necrotic injury assay in ALM12 hepatocytes (microscopy, CCK-8); type: cell-based; settings: 2 mM H2O2, 1 μM compound, 3 hours, microscope and CCK-8
Description: In this example, the effect of the compounds of the present invention on the level of necrotic injury induced by H2O2 in ALM12 hepatocytes was analyzed by microscopic morphological observations, cell viability in combination with cell death-associated molecules. Cell viability was analyzed by CCK-8 assay. ALM12 cells were cultured in 1640 medium (gibco, c11995500BT)+10% FBS (gibco, 10099141C) in a constant temperature incubator at 37° C., 5% CO2; the CCK-8 kit was purchased from Meilunbio, item no. MA0218-3; H2O2 was purchased from Sinopharm Chemical Reagent Co. item no. 10011208.
(§1) Experimental methods: first, 8000 cells/well ALM12 cells were placed in 96-well plates and incubated overnight. On the second day, 0.1% DMSO was added to the control cells, 2 mM H2O2 as well as 0.1% DMSO was added to the model group, 2 mM H2O2 as well as 1 μM of the compounds (oxy, 1, 2, tet, 3, 4, 6, 58) was added to the treatment group, and the 96-well plates were sterilized and incubated in a constant temperature incubator for 3 hours. Finally, cell injury and growth were observed using a microscope; the viability of the cells was detected by CCK-8 kit.

[3] = system: A549 lung epithelial cells; experiment: Anti TGF-β1-induced fibrosis assay in A549 lung epithelial cells (microscopy, Western Blot); type: cell-based; settings: 10 ng/ml TGF-β1, 1 μM compound
Description: Cell injury was observed by microscopic observation; cell viability was analyzed by CCK-8 assay; and protein expression levels of fibrosis-related indicators were detected by Western Blot method. A549 cells were purchased from ATCC; CCK-8 kit was purchased from Meilunbio, item number MA0218-3; TGF-β1 was purchased from MCE, item number HY-P70543; primary antibodies: Collagen was purchased from ARG21965, item no. arigobio; α-smooth muscle actin was purchased from CST, item no. mAb #19245; VIMENTN was purchased from CST, item no. mAb #5741; GAPDH was purchased from Yeasen, item no. 30201ES20.
as §1, with “cells/well A549” for “cells/well ALM12”, “cells, 10 ng/ml TGF-β1” for “cells, 2 mM H2O2”, “group, 10 ng/ml TGF-β1” for “group, 2 mM H2O2”, “for 72” for “for 3”

[4] = system: HCoV OC43 virus; experiment: Inhibition against HCoV OC43 virus replication; type: cell-based, human coronavirus HCoV OC43; settings: for EC50: Betacoronavirus 1, OC43
[5] = target: hNav1.5 sodium channel (Homo sapiens, UniProt Q14524); experiment: Nav1.5 sodium channel whole-cell membrane clamp in CHL cells
Description: Nav1.5: CHL cells stably expressing hNav1.5 sodium channel was used to record hNav1.5 sodium channel currents by whole-cell membrane clamp technique at room temperature. The glass microelectrodes were made from glass electrode blanks (BF150-86-10, Sutter) by pulling through a puller, and the tip resistance was about 2-5 MΩ after filling the electrode with internal fluid, and the glass microelectrodes were connected to Axopatch 200B (Molecular Devices) membrane clamp amplifier by inserting the glass microelectrodes into the amplifier probe. Clamp voltage and data recording were controlled and recorded by pClamp 10 software via a computer with a sampling frequency of 10 kHz and a filtering frequency of 2 kHz. After obtaining whole-cell recordings, the cells were clamped at −80 mV, given a hyperpolarizing voltage of 200 ms to −120 mV, and then depolarized to −20 mV for 20 ms to evoke a Nav1.5 current. This voltage stimulus was given every 10 s; after the hNav1.5 sodium current was determined to be stabilized (for at least 1 min), begins the dosing process. Concentrations of the sample to be tested were administered continuously starting from low test concentration, and each test concentration was given for 1 min to reach steady state of action or for a maximum of 3 min. A minimum of 3 cells (n≥3) were tested at each concentration of the sample to be tested, and a minimum of 2 cells (n≥2) were tested at each concentration of the positive control.
Extracellular fluid formulation (mM): 140 NaCl, 5 KCl, 1 CaCl2, 1.25 MgCl2, 10 HEPES and 10 Glucose, adjusting the pH to 7.4 with NaOH.
Intracellular fluid formulation (mM): 130 CsF, 10 NaCl, 10 EGTA and 10 HEPES, adjusting the pH to 7.2 with CsOH.

[6] = system: Raw 264.7 cells; experiment: Cell viability in TNF-α induced inflammation model of Raw 264.7 cells (CCK-8); type: cell-based; settings: 10 ng/ml TNF-α, 1 μM compound, 16 hours
Description: In this embodiment, the effect of compounds on TNF-α-induced inflammation levels in Raw 264.7 cells was analyzed by cell viability combined with inflammatory factor expression levels; cell viability was analyzed by CCK-8 assay; and mRNA expression levels of inflammation-associated indicators were detected by real-time quantitative PCR (Q-PCR) method. Raw 264.7 cells were purchased from ATCC, CCK-8 kit was purchased from Meilunbio, item number MA0218-3, TNF-α was purchased from Merck, item no. GF314.
Experimental methods: first, 8000 cells/well Raw 264.7 cells were placed in 96-well plates and incubated overnight. On the second day, 0.1% DMSO was added to the control cells, 10 ng/ml TNF-α as well as 0.1% DMSO was added to the model group, 10 ng/ml TNF-α as well as 1 μM of the compounds (oxyacanthine hydrochloride (oxy), 1, 2, tetrandrine (tet), 3, 4, 6, 58) was added to the treatment group, and the 96-well plates were sterilized and incubated in a constant temperature incubator for 16 hours. Finally, the viability of the cells was detected using the CCK-8 kit.

[7] = system: 2019 novel coronavirus (SARS-CoV-2) original strain; experiment: Replication inhibitory activity against SARS-CoV-2 original strain in Vero E6 cells (qRT-PCR); type: cell-based; settings: read-out: Inhibition against viral replication of the original strain EC50
[8] = system: Vero E6 cells; experiment: Cytotoxicity test on Vero E6 cells (CCK8); type: cell-based; settings: Vero E6 cells
Description: (§2) In this embodiment, the half toxicity concentration of each embodiment on Vero E6 cells was determined by CCK8 kit analysis (CC50).

[9] = Cytotoxicity test on Vero E6 cells (CCK8); type: cell-based; settings: African green monkey; Vero E6 cells, CCK8 kit
Description: as §2

[10] = system: Th1/Th17 differentiation of CD4+T cells; experiment: CD4+T cell in vitro differentiation assay (Th1 IFN-γ / Th17 IL-17A, flow cytometry); set-up: inhibitory effect on Th1/Th17 differentiation at lower concentration: dose or concentration left out as unconfirmed; settings: 72 h; for inhibitory effect on Th1/Th17 differentiation: 10 μM, IFN-γ/IL-17A by flow cytometry
Description: CD4^+T cell isolation: CD4^+T cells were isolated from the spleens of 7-8 week old C57BL/6 mice using the Mouse CD4^+T Cell Sorting Kit (Dynabeads® Untouched™ Mouse CD4 Cells Isolation Kit, Invitrogen, Catalog nos: 11415D).
In vitro differentiation of CD4^+T cells: the isolated CD4^+T cells were inoculated into 96-well plates while different concentrations of compounds were added, and then corresponding cytokines and antibodies were added: anti-CD28 (2 μg/ml), anti-CD3 (2 μg/ml), Anti-IL-4 (10 μg/ml), IL-12 (10 ng/ml), Anti-IFN-γ (10 μg/ml), anti-IL-4 (10 μg/ml), IL-6 (30 ng/ml), TGF-β1 (3 ng/ml), IL-10 (10 ng/ml), IL-23 (10 ng/ml), and TNF-α (10 ng/ml). Cells were cultured in 5% CO2 at 37° C. in a cell culture chamber for 72 h. Cells were collected, stained intracellularly, analyzed by flow cytometry, and tested for IFN-γ/IL-17A content to assess the effect of compounds on CD4^+T differentiation into Th1/Th17 in vitro.

T1 sequence (Q12809 whole entry): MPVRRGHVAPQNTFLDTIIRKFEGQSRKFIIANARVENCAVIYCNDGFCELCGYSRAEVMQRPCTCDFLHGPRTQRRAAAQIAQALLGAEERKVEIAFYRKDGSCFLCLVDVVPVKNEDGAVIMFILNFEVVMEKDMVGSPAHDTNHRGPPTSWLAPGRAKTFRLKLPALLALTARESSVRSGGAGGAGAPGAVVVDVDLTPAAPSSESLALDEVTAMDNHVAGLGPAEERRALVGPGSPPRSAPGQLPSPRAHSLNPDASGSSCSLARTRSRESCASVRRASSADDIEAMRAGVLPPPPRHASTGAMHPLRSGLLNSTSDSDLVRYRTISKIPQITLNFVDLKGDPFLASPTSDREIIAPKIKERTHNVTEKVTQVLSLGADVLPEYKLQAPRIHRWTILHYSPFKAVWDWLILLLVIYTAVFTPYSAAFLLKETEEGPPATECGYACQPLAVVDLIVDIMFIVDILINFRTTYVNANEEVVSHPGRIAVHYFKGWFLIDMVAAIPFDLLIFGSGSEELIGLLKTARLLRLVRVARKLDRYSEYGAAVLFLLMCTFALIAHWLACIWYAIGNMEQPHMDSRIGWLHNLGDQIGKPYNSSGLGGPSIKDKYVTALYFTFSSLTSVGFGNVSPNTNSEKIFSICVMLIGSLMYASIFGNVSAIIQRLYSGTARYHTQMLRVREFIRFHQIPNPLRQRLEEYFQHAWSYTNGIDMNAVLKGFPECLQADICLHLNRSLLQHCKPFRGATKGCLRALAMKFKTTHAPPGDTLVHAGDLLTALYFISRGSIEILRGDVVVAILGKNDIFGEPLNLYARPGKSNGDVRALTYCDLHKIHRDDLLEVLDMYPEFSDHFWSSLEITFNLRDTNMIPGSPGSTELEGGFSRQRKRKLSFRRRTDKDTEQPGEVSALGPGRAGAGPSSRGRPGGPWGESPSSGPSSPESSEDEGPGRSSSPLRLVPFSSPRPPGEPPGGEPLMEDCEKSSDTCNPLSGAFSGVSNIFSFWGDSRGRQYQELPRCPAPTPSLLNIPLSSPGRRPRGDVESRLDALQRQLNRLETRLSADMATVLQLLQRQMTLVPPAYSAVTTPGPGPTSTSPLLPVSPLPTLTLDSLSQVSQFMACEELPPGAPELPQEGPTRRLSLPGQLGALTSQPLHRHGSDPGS
Sequence of hNav1.5 sodium channel (Q14524 whole entry): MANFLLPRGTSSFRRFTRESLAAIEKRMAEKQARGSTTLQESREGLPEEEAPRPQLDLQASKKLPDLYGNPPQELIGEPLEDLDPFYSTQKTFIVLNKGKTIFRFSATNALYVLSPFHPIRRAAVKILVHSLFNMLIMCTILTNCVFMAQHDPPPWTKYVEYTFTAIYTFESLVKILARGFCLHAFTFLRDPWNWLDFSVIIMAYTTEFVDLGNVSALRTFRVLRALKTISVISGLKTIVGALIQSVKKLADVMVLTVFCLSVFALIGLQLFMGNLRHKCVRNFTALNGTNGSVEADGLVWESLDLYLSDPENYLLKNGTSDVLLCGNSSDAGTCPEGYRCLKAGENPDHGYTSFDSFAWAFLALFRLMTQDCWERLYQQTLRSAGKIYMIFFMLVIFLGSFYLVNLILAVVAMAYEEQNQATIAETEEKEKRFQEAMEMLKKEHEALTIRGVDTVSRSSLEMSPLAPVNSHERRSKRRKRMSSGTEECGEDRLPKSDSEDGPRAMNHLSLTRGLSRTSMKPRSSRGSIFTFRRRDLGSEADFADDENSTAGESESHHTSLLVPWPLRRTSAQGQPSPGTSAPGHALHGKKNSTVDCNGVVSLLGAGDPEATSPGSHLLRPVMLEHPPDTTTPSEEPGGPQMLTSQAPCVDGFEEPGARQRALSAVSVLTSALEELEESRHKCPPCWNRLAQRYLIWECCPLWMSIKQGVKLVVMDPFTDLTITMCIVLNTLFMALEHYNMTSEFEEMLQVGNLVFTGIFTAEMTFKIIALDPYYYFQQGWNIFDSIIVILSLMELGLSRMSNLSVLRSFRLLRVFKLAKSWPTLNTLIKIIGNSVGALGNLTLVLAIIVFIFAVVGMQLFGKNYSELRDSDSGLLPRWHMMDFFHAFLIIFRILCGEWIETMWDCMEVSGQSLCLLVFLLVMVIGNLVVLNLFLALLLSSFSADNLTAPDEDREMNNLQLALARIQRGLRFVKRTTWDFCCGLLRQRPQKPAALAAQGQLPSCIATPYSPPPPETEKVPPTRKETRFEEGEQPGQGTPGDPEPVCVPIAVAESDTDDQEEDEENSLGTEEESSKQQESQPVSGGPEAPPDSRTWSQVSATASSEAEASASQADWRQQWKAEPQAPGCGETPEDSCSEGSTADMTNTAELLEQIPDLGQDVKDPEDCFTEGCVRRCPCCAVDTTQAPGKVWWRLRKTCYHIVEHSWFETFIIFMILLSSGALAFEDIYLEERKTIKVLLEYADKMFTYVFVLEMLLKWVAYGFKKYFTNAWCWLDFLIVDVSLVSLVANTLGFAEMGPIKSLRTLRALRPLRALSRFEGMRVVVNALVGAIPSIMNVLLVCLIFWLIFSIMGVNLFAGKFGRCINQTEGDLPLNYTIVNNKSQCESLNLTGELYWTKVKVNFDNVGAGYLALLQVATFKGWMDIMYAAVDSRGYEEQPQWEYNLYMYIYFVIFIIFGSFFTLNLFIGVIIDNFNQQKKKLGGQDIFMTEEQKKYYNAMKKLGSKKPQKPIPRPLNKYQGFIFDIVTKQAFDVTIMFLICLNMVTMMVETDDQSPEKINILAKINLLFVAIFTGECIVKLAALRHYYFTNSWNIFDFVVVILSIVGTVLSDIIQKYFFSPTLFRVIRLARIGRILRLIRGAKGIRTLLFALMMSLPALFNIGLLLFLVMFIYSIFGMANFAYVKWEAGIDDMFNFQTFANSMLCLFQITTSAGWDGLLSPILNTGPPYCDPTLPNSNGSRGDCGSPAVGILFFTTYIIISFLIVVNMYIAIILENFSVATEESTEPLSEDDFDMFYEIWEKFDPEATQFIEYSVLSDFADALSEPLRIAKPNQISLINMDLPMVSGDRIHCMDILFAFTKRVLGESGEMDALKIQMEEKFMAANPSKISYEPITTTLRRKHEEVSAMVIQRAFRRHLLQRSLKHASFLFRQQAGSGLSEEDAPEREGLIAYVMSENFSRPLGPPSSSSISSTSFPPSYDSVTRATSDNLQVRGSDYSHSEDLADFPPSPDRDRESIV

SMILES	activity against hERG ion channels [1]	IC50 [1]	alleviation of H2O2-induced ALM12 hepatocyte injury [2]	alleviation of TGF-β1-induced fibrosis in A549 lung epithelial cells (Collagen1, α-SMA by WB) [3]	inhibition against human coronavirus HCoV OC43 [4]	EC50 [4]	IC50 [5]	cell viability in TNF-α-induced inflammation model [6]	EC50 ([7]; Severe acute respiratory syndrome coronavirus 2, Vero C1008, 24 h)	cytotoxicity on Vero E6 cells compared with oxyacanthine hydrochloride [8]	IC50 [9]	inhibitory effect on Th1/Th17 differentiation [10]	inhibitory effect on Th1/Th17 differentiation at lower concentration [10]	IC50 ([1]; human, CHO cells stably expressing hERG potassium channels, pH 7.4)	activity against Nav1.5 channels [5]	EC50 ([7]; Severe acute respiratory syndrome coronavirus 2, Vero C1008, Vero E6 cells, MOI 0.01, 24 h p.i., viral copy number by qRT-PCR)
CCCCNC(=O)Oc1ccc2cc1Oc1ccc(cc1)C[C@H]1c3c(cc(OC)c(OC)c3Oc3cc4c(cc3OC)CCN(C)[C@@H]4C2)CCN1C [Compound 2]	weakly active	19 µM	significantly alleviated	alleviated; also recorded: partially alleviate fibrosis	strong inhibition	1.2 µM	> 10 µM	did not affect cell viability	0.1 to 1 µM	weaker cytotoxicity than oxyacanthine hydrochloride	30 to 50 µM	strong inhibitory effect	strong inhibitory effect	–	–	–
COc1cc2c3cc1Oc1c(OC)c(OC)cc4c1[C@H](Cc1ccc(cc1)Oc1cc(ccc1C(N)=O)C[C@H]3N(C)CC2)N(C)CC4 [Compound 4]	weakly active	–	significantly alleviated	alleviated; also recorded: partially alleviate fibrosis	strong inhibition	5 µM	> 50 µM	did not affect cell viability	–	weaker cytotoxicity than oxyacanthine hydrochloride	> 50 µM	strong inhibitory effect	–	20 µM	weakly active	0.1 to 1 µM
